Experimental data taken from patent US12233161B1, “Lipids and lipid nanoparticle formulations” (LONGUIDE BIOPHARMA CORPORATION, priority 2024, dated 2025).

Experiments:
[1] = Potential characterization of nucleic acid lipid nanoparticle preparations; assay type: physicochemical
Protocol: 20 μL of the nucleic acid lipid nanoparticle solution (containing about 0.04 mg/mL mRNA) was taken and added with 780 μL of ultrapure water, used a pipette tip to gently blow and mix, and the potential of the nanopreparation was detected by Malvern particle sizer (model ZEN3700).
27.5 μL nucleic acid lipid nanoparticle solution (containing about 0.04 mg/mL mRNA) was taken and added with 200 μL ultrapure water. A pipette tip was used to gently blow the sample and mix well. The particle size of the nanopreparation was detected by Malvern Dynamic Light Scattering Instrument (Malvern Instruments Ltd., ZEN3700, UK). After the detection, the sample was recovered to an EP tube, and 600 μL of ultrapure water was added, gently blown with a pipette tip, and the potential of the nanopreparation was measured by a Malvern particle size meter.

mice = test: In vivo delivery of FLuc-mRNA lipid nanoparticles in mice, in vivo imaging (IVIS); conditions: for IVIS: Fluc-mRNA
Method in brief: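 Mice (n=3) received about 75 μL FLuc-mRNA LNP per mouse intramuscularly (rectus femoris), intravenously (tail vein), intraperitoneally or subcutaneously (back). After injection, D-luciferin (200 μL, 15 mg/mL) was given i.p. 10-15 min before IVIS imaging.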

[2] = Particle size and PDI of nucleic acid lipid nanoparticle preparations by dynamic light scattering; assay type: physicochemical
Method in brief: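 LNP solution (about 0.04 mg/mL mRNA before dilution) was diluted in ultrapure water and mixed by gentle pipetting. Particle size and PDI were then measured by dynamic light scattering.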

[3] = DMG-PEG2000:DSPC:Chol:compound 1.40:11.15:38.95:48.50, N/P 30
[4] = IM, DMG-PEG2000:DSPC:Chol:compound 1.40:11.15:38.95:48.50, N/P 30
[5] = IV, body, DMG-PEG2000:DSPC:Chol:compound 1.40:11.15:38.95:48.50, N/P 30
[6] = IV, liver, DMG-PEG2000:DSPC:Chol:compound 1.00:10.00:33.00:56.00, N/P 42
[7] = IV, liver, DMG-PEG2000:DSPC:Chol:compound 1.40:11.15:38.95:48.50, N/P 30
[8] = IV, lung, DMG-PEG2000:DSPC:Chol:compound 1.00:10.00:33.00:56.00, N/P 42
[9] = IV, lung, DMG-PEG2000:DSPC:Chol:compound 1.40:11.15:38.95:48.50, N/P 30
[10] = IV, spleen, DMG-PEG2000:DSPC:Chol:compound 1.00:10.00:33.00:56.00, N/P 42
[11] = IV, spleen, DMG-PEG2000:DSPC:Chol:compound 1.40:11.15:38.95:48.50, N/P 30
[12] = DMG-PEG2000:DSPC:Chol:compound 1.00:10.00:33.00:56.00, N/P 42
[13] = mPEG-DMPE:DOPE:Chol:compound 1.40:11.15:38.95:48.50, N/P 24
[14] = IV, liver, mPEG-DMPE:DOPE:Chol:compound 1.40:11.15:38.95:48.50, N/P 24
[15] = IV, lung, mPEG-DMPE:DOPE:Chol:compound 1.40:11.15:38.95:48.50, N/P 24
[16] = IV, spleen, mPEG-DMPE:DOPE:Chol:compound 1.40:11.15:38.95:48.50, N/P 24
[17] = DMG-PEG2000:DSPC:Chol:compound 1.40:11.15:38.95:48.50, N/P 20

**Q.** With CCCCCCCCCCCCNCC(O)CN(CCCCCN(C)CCCCCN(CC(O)CNCCCCCCCCCCCC)CC(O)C(=O)NCCCCCCCCCCCC)CC(O)C(=O)NCCCCCCCCCCCC (centres unmarked) [Compound L0303] as the compound, how does the “Zeta potential (mV)” value [1, 3] read?
**A.** Its value is 12.97 mV.

**Q.** And the IVIS (mice; [4])?
**A.** The IVIS was 9.76E+05.

**Q.** What about the IVIS (mice; IV, body, DMG-PEG2000:DSPC:Chol:compound 1.00:10.00:33.00:56.00, N/P 42) of the same compound?
**A.** The IVIS was 2.40E+08.

**Q.** What about the IVIS (mice; [5]) of the same compound?
**A.** The IVIS was 1.33E+08.

**Q.** What about the “% of organ targeting” value (mice; [6]) of the same compound?
**A.** The value was 0.64%.

**Q.** And the IVIS (mice; [6])?
**A.** Its IVIS is 2.70E+06.

**Q.** And the “% of organ targeting” value (mice; [7])?
**A.** The value was 2.25%.

**Q.** What about the IVIS (mice; [7]) of the same compound?
**A.** The IVIS was 7.60E+06.

**Q.** What about the “% of organ targeting” value (mice; [8]) of the same compound?
**A.** Its value is 98.72%.

**Q.** What about the IVIS (mice; [8]) of the same compound?
**A.** Its IVIS is 4.17E+08.

**Q.** And the “% of organ targeting” value (mice; [9])?
**A.** Its value is 96.16%.

**Q.** What about the IVIS (mice; [9]) of the same compound?
**A.** The IVIS was 3.25E+08.

**Q.** What about the “% of organ targeting” value (mice; [10]) of the same compound?
**A.** The value was 0.64%.

**Q.** What about the IVIS (mice; [10]) of the same compound?
**A.** The IVIS was 2.70E+06.

**Q.** And the “% of organ targeting” value (mice; [11])?
**A.** The value was 1.59%.

**Q.** And the IVIS (mice; [11])?
**A.** Its IVIS is 5.38E+06.

**Q.** What about the PDI [2, 12] of the same compound?
**A.** The PDI was 0.09.

**Q.** And the “Particle size (nm)” value [2, 12]?
**A.** Its value is 132.10 nm.

**Q.** And the PDI [2, 3]?
**A.** Its PDI is 0.10.

**Q.** And the “Particle size (nm)” value [2, 3]?
**A.** Its value is 122.57 nm.

**Q.** What does the source list for CCCCCCCCCCCCCCOC(=O)C(O)CN(CCN(C)CCN(CC(O)C(=O)OCCCCCCCCCCCCCC)CC(O)C(=O)OCCCCCCCCCCCCCC)CC(O)C(=O)OCCCCCCCCCCCCCC (centres unmarked) [Compound L0338]?
**A.** Zeta potential (mV) [1, 3]: 19.13 mV; IVIS (mice; [4]): 3.98E+05; IVIS (mice; [5]): 8.55E+06; % of organ targeting (mice; [7]): 11.14%; IVIS (mice; [7]): 8.81E+05; % of organ targeting (mice; [9]): 3.68%; IVIS (mice; [9]): 2.91E+05; % of organ targeting (mice; [11]): 85.18%; IVIS (mice; [11]): 6.73E+06; PDI [2, 3]: 0.22; Particle size (nm) [2, 3]: 96.63 nm

**Q.** Which “Zeta potential (mV)” value [1, 13] does the source give for CCCCCCCCCCN(C)C(=O)C(O)CN(CCCN(C)CCCN(CC(O)C(=O)N(C)CCCCCCCCCC)CC(O)C(=O)N(C)CCCCCCCCCC)CC(O)C(=O)N(C)CCCCCCCCCC (centres unmarked) [Compound L0347] here?
**A.** The value was 10.83 mV.

**Q.** What about the IVIS (mice; IM, mPEG-DMPE:DOPE:Chol:compound 1.40:11.15:38.95:48.50, N/P 24) of the same compound?
**A.** The IVIS was 6.65E+04.

**Q.** And the IVIS (mice; IV, body, mPEG-DMPE:DOPE:Chol:compound 1.40:11.15:38.95:48.50, N/P 24)?
**A.** Its IVIS is 3.20E+06.

**Q.** And the “% of organ targeting” value (mice; [14])?
**A.** Its value is 1.47%.

**Q.** And the IVIS (mice; [14])?
**A.** The IVIS was 1.56E+05.

**Q.** What about the “% of organ targeting” value (mice; [15]) of the same compound?
**A.** The value was 86.45%.

**Q.** What about the IVIS (mice; [15]) of the same compound?
**A.** The IVIS was 9.16E+06.

**Q.** And the “% of organ targeting” value (mice; [16])?
**A.** The value was 12.08%.

**Q.** And the IVIS (mice; [16])?
**A.** The IVIS was 1.28E+06.

**Q.** What about the PDI [2, 13] of the same compound?
**A.** The PDI was 0.10.

**Q.** What about the “Particle size (nm)” value [2, 13] of the same compound?
**A.** The value was 148.60 nm.

**Q.** Which “Zeta potential (mV)” value [1, 3] does the source give for CCCCCCCCC(CCCCCC)C(=O)OCCCCCCOC(=O)C(O)CN(C)CCN(C)CCN(C)CC(O)C(=O)OCCCCCCOC(=O)C(CCCCCC)CCCCCCCC (centres unmarked) [Compound L0292] here?
**A.** Its value is 13.33 mV.

**Q.** What about the IVIS (mice; [4]) of the same compound?
**A.** Its IVIS is 1.05E+05.

**Q.** And the IVIS (mice; [5])?
**A.** The IVIS was 9.82E+06.

**Q.** And the “% of organ targeting” value (mice; [7])?
**A.** The value was 25.18%.

**Q.** What about the IVIS (mice; [7]) of the same compound?
**A.** Its IVIS is 3.22E+06.

**Q.** And the “% of organ targeting” value (mice; [9])?
**A.** The value was 16.03%.

**Q.** And the IVIS (mice; [9])?
**A.** Its IVIS is 2.05E+06.

**Q.** What about the “% of organ targeting” value (mice; [11]) of the same compound?
**A.** The value was 58.80%.

**Q.** And the IVIS (mice; [11])?
**A.** Its IVIS is 7.53E+06.

**Q.** And the PDI [2, 3]?
**A.** The PDI was 0.22.

**Q.** And the “Particle size (nm)” value [2, 3]?
**A.** Its value is 151.20 nm.

**Q.** Which “Zeta potential (mV)” value [1, 17] does the source give for CCCCCCCCCCCCOC(=O)C(O)CN(CCCCCCCN(CC(O)C(=O)OCCCCCCCCCCCC)CC(O)C(=O)OCCCCCCCCCCCC)CC(O)C(=O)OCCCCCCCCCCCC (centres unmarked) [Compound L0322] here?
**A.** Its value is 9.14 mV.

**Q.** What about the IVIS (mice; IM, DMG-PEG2000:DSPC:Chol:compound 1.40:11.15:38.95:48.50, N/P 20) of the same compound?
**A.** Its IVIS is 8.23E+05.

**Q.** What about the IVIS (mice; IV, organ not given, DMG-PEG2000:DSPC:Chol:compound 1.40:11.15:38.95:48.50, N/P 20) of the same compound?
**A.** The IVIS was 2.72E+05.

**Q.** What about the PDI [2, 17] of the same compound?
**A.** The PDI was 0.40.

**Q.** What about the “Particle size (nm)” value [2, 17] of the same compound?
**A.** The value was 260.70 nm.

**Q.** With CCCCCCCCC(CCCCCC)C(=O)OCCCCCCOC(=O)C(O)CN(CCCN(C)CCCN(CC(O)C(=O)OCCCCCCOC(=O)C(CCCCCC)CCCCCCCC)CC(O)C(=O)OCCCCCCOC(=O)C(CCCCCC)CCCCCCCC)CC(O)C(=O)OCCCCCCOC(=O)C(CCCCCC)CCCCCCCC (centres unmarked) [Compound L0295] as the compound, how does the “Zeta potential (mV)” value [1, 3] read?
**A.** Its value is 10.63 mV.

**Q.** What about the IVIS (mice; [4]) of the same compound?
**A.** Its IVIS is 5.87E+07.

**Q.** And the IVIS (mice; [5])?
**A.** The IVIS was 9.48E+07.

**Q.** And the “% of organ targeting” value (mice; [7])?
**A.** Its value is 33.17%.

**Q.** And the IVIS (mice; [7])?
**A.** The IVIS was 2.38E+07.

**Q.** And the “% of organ targeting” value (mice; [9])?
**A.** Its value is 5.87%.

**Q.** What about the IVIS (mice; [9]) of the same compound?
**A.** Its IVIS is 4.20E+06.

**Q.** And the “% of organ targeting” value (mice; [11])?
**A.** Its value is 60.96%.

**Q.** What about the IVIS (mice; [11]) of the same compound?
**A.** Its IVIS is 4.37E+07.

**Q.** And the PDI [2, 3]?
**A.** The PDI was 0.10.

**Q.** And the “Particle size (nm)” value [2, 3]?
**A.** Its value is 135.33 nm.

**Q.** For CCCCCCC(CCCCCC)C(=O)OCCCCOC(=O)C(O)CN(CCCN(C)CCCN(CC(O)C(=O)OCCCCOC(=O)C(CCCCCC)CCCCCC)CC(O)C(=O)OCCCCOC(=O)C(CCCCCC)CCCCCC)CC(O)C(=O)OCCCCOC(=O)C(CCCCCC)CCCCCC (centres unmarked) [Compound L0294], which “Zeta potential (mV)” value [1, 3] is on record?
**A.** The value was 9.23 mV.

**Q.** What about the IVIS (mice; [4]) of the same compound?
**A.** The IVIS was 3.81E+07.

**Q.** And the IVIS (mice; [5])?
**A.** Its IVIS is 3.72E+08.

**Q.** And the “% of organ targeting” value (mice; [7])?
**A.** The value was 38.21%.

**Q.** What about the IVIS (mice; [7]) of the same compound?
**A.** Its IVIS is 5.13E+07.

**Q.** What about the “% of organ targeting” value (mice; [9]) of the same compound?
**A.** The value was 7.55%.

**Q.** And the IVIS (mice; [9])?
**A.** The IVIS was 1.01E+07.

**Q.** And the “% of organ targeting” value (mice; [11])?
**A.** Its value is 54.25%.

**Q.** What about the IVIS (mice; [11]) of the same compound?
**A.** Its IVIS is 7.28E+07.

**Q.** What about the PDI [2, 3] of the same compound?
**A.** The PDI was 0.13.

**Q.** What about the “Particle size (nm)” value [2, 3] of the same compound?
**A.** The value was 129.13 nm.
